ChEMBL document CHEMBL4350967, “The Trifluoromethyl Group as a Bioisosteric Replacement of the Aliphatic Nitro Group in CB1 Receptor Positive Allosteric Modulators” (J Med Chem, 2019)

Legend:
Format in all cases: cell-based
[1] = target: T1, Cannabinoid receptor 1 (Homo sapiens, UniProt P21554); test: Positive allosteric modulation of human CB1 receptor expressed in CHOK1 cells assessed as increase in CP55940-induced beta-arrestin recruitment at 500 nM preincubated for 30 mins followed by CP55940 addition and measured after 90 to 180 mins by PathHunter assay relative to CP55940
T1 sequence (P21554 whole entry): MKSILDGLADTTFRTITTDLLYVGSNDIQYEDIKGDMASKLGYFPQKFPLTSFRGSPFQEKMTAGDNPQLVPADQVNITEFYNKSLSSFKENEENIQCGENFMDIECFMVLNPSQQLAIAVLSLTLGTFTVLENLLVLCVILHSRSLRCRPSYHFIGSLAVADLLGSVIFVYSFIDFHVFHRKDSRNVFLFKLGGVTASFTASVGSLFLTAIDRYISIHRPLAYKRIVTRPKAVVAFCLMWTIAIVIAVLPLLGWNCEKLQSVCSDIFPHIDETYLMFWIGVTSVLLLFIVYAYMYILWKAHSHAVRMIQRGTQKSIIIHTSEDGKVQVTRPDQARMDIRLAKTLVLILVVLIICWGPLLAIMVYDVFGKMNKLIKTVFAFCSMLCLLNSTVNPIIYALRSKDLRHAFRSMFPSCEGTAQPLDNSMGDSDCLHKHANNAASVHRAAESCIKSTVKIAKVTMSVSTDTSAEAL

[2] = target: T1, Cannabinoid receptor 1; test: Positive allosteric modulation of human CB1 receptor expressed in CHOK1 cells assessed as increase in CP55940-induced beta-arrestin recruitment at 1000 nM preincubated for 30 mins followed by CP55940 addition and measured after 90 to 180 mins by PathHunter assay relative to CP55940
[3] = target: T1, Cannabinoid receptor 1; test: Positive allosteric modulation of human CB1 receptor expressed in CHOK1 cells assessed as increase in CP55940-induced beta-arrestin recruitment at 1 uM preincubated for 30 mins followed by CP55940 addition and measured after 90 to 180 mins by PathHunter assay relative to CP55940
[4] = target: T1, Cannabinoid receptor 1; test: Positive allosteric modulation of human CB1 receptor expressed in CHOK1 cells assessed as increase in CP55940-induced beta-arrestin recruitment at 200 nM preincubated for 30 mins followed by CP55940 addition and measured after 90 to 180 mins by PathHunter assay relative to CP55940
[5] = target: T1, Cannabinoid receptor 1; test: Positive allosteric modulation of human CB1 receptor expressed in CHOK1 cells assessed as increase in CP55940-induced beta-arrestin recruitment preincubated for 30 mins followed by CP55940 addition and measured after 90 to 180 mins by PathHunter assay relative to CP55940

SMILES | Activity [3] [%] | other results
Cc1ccc2c(C(CC(F)(F)F)c3cccs3)c(-c3ccccc3)[nH]c2c1 (racemic) |  | Activity [1]: > 50%
Cc1ccc2c(C(CC3CC3)CC(F)(F)F)c(-c3ccccc3)[nH]c2c1 (racemic) |  | Activity [2]: > 50%
Cc1ccc2c(C(C[N+](=O)[O-])c3cccs3)c(-c3ccc(F)cc3)[nH]c2c1 (racemic) | < 50 | 
Cc1ccc2c(C(C[N+](=O)[O-])c3cccs3)c(C3CC3)[nH]c2c1 (racemic) |  | Activity [2]: > 50%
Cc1ccc2c(C(C[N+](=O)[O-])c3cccs3)c(C3CCCC3)[nH]c2c1 (racemic) |  | Activity [2]: > 50%
Cc1ccc2c(C(c3ccccc3)C(C#N)C#N)c(-c3ccccc3)[nH]c2c1 (racemic) |  | Activity [2]: > 50%
FC(F)(F)CC(c1ccccc1)c1c(-c2ccccc2)[nH]c2cc(C(F)(F)F)ccc12 (racemic) |  | Activity [4]: > 50%
FC(F)(F)CC(c1ccccc1)c1c(-c2ccccc2)[nH]c2ccccc12 (racemic) | 30 to 50 | Activity [2]: > 50%
FC(F)(F)CC(c1ccco1)c1c(-c2ccccc2)[nH]c2cc(Cl)ccc12 (racemic) |  | Activity [1]: > 50%
FC(F)(F)CC(c1cccs1)c1c(-c2ccccc2)[nH]c2cc(Cl)ccc12 (racemic) |  | Activity [4]: > 50%
N#CC(C#N)C(c1ccccc1)c1c(-c2ccccc2)[nH]c2ccccc12 (racemic) | < 50 | 
N#CCC(c1ccccc1)c1c(-c2ccccc2)[nH]c2ccccc12 (racemic) | < 50 | 
N#Cc1ccc2c(C(C[N+](=O)[O-])c3cccs3)c(-c3ccccc3)[nH]c2c1 (racemic) |  | Activity [2]: > 50%
Nc1ccc2c(C(CC(F)(F)F)c3cccs3)c(-c3ccccc3)[nH]c2c1 (racemic) | < 50 | 
O=C(C(c1ccccc1)c1c(-c2ccccc2)[nH]c2ccccc12)C(F)(F)F (racemic) | 30 to 50 | 
O=C(O)c1ccc(-c2[nH]c3cc(Cl)ccc3c2C(C[N+](=O)[O-])c2cccs2)cc1 (racemic) | < 50 | 
O=[N+]([O-])CC(c1cccs1)c1c(-c2ccccc2)[nH]c2ccc([N+](=O)[O-])cc12 (racemic) | < 50 | 
COC(=O)c1ccc2c(C(CC(F)(F)F)c3cccs3)c(-c3ccccc3)[nH]c2c1 (single isomer, unassigned; (+)) |  | Activity [4]: > 50%; Emax [5]: 156%
COC(=O)c1ccc2c(C(CC(F)(F)F)c3cccs3)c(-c3ccccc3)[nH]c2c1 (single isomer, unassigned; (-)) |  | Activity [4]: > 50%

Second part, led by results:

Activity [3] [%] | SMILES | other results
< 50 | Cc1ccc2c(C(C[N+](=O)[O-])c3cccs3)c(C3CCCCC3)[nH]c2c1 (racemic) | 
< 50 | N#Cc1ccc(-c2[nH]c3cc(Cl)ccc3c2C(C[N+](=O)[O-])c2cccs2)cc1 (racemic) | 
< 50 | N#Cc1cccc(-c2[nH]c3cc(Cl)ccc3c2C(C[N+](=O)[O-])c2cccs2)c1 (racemic) | 
< 50 | O=C(O)CC(c1ccccc1)c1c(-c2ccccc2)[nH]c2ccccc12 (racemic) | 
< 50 | O=C(O)c1ccc2c(C(CC(F)(F)F)c3cccs3)c(-c3ccccc3)[nH]c2c1 (racemic) | 
< 50 | O=[N+]([O-])CC(c1cccs1)c1c(-c2ccc(Cl)cc2)[nH]c2cc(Cl)ccc12 (racemic) | 
< 50 | O=[N+]([O-])CC(c1cccs1)c1c(-c2ccc(F)cc2)[nH]c2cc(Cl)ccc12 (racemic) | 
< 50 | OCC(c1ccccc1)c1c(-c2ccccc2)[nH]c2ccccc12 (racemic) | 
< 50 | OCc1ccc2c(C(CC(F)(F)F)c3cccs3)c(-c3ccccc3)[nH]c2c1 (racemic) | 
< 50 | O=C(O)CC(c1ccccc1)c1c(-c2ccccc2)[nH]c2ccccc12 (single isomer, unassigned; (+)) | 
< 50 | O=C(O)CC(c1ccccc1)c1c(-c2ccccc2)[nH]c2ccccc12 (stereo in doubt; (-)-26) | 
